Data taken from US20070099941A1, “N-arylalkyl-thienopyrimidin-4-amines and analogs as activators of caspases and inducers of apoptosis and the use thereof” (Cytovia, Inc., priority 2005, published 2007).

Assays:
[1] = test system: human breast cancer cell line T-47D; assay: Caspase cascade activation assay in T-47D cells; assay type: cell-based; details: T47D, 24 h or 48 h incubation, read-out: Caspase Activation Potency EC50 T-47D
Experimental: (§1) Human breast cancer cell lines T-47D and human lung cancer cell line H1299 were grown according to media component mixtures designated by American Type Culture Collection+10% FCS (Invitrogen Corporation), in a 5% CO2-95% humidity incubator at 37° C. T-47D and H1299 cells were maintained at a cell density between 50 and 80% confluency at a cell density of 0.1 to 0.6×10^6 cells/mL. Cells were harvested at 600×g and resuspended at 0.65×10^6 cells/mL into appropriate media+10% FCS. An aliquot of 22.5 μL of cells was added to a well of a 384-well microtiter plate containing 2.5 μL of a 10% DMSO in RPMI-1640 media solution containing 0.16 to 100 μM of N-(3,4-methylenedioxybenzyl)-6-phenylthieno[3,2-d]pyrimidin-4-amine or other test compound (0.016 to 10 μM final). An aliquot of 22.5 μL of cells was added to a well of a 384-well microtiter plate containing 2.5 μL of a 10% DMSO in RPMI-1640 media solution without test compound as the control sample. The samples were mixed by agitation and then incubated at 37° C. for 24 h or 48 h in a 5% CO2-95% humidity incubator. After incubation, the samples were removed from the incubator and 25 μL of a solution containing 14 μM of N-(Ac-DEVD)-N′-ethoxycarbonyl-R110 (SEQ ID No.:1) fluorogenic substrate (Cytovia, Inc.; WO99/18856), 20% sucrose (Sigma), 20 mM DTT (Sigma), 200 mM NaCl (Sigma), 40 mM Na PIPES buffer pH 7.2 (Sigma), and 500 μg/mL lysolecithin (Calbiochem) was added. The samples were mixed by agitation and incubated at room temperature. Using a fluorescent plate reader (Model SPECTRAfluor Plus, Tecan), an initial reading (T=0) was made approximately 1-2 min after addition of the substrate solution, employing excitation at 485 nm and emission at 530 nm, to determine the background fluorescence of the control sample. After the 3 h incubation, the samples were read for fluorescence as above (T=3 h).
(§2) The Relative Florescence Unit values (RFU) were used to calculate the sample readings as follows: RFU(T=3h)−Control RFU(T=0)=Net RFU(T=3h)
(§3) The activity of caspase cascade activation was determined by the ratio of the net RFU value for N-(3,4-methylenedioxybenzyl)-6-phenylthieno[3,2-d]pyrimidin-4-amine (Example A) or other test compound to that of control samples. The EC50 (nM) was determined by a sigmoidal dose-response calculation (Prism 3.0, GraphPad Software Inc.).

[2] = test system: human lung cancer cell line H1299; assay: Caspase cascade activation assay in H1299 cells; assay type: cell-based; details: NCI-H1299, 24 h or 48 h incubation, read-out: Caspase Activation Potency EC50 H1299
Experimental: as §1, §2, §3

| SMILES | EC50 [1] [µM] | EC50 [2] [µM] |
| --- | --- | --- |
| COc1ccc(CNc2ncnc3cc(-c4ccccc4)sc23)cc1 [Example 10, N-(4-Methoxybenzyl)-6-phenylthieno[3,2-d]pyrimidin-4-amine] | 1.4 | 2.68 |
| Oc1ccc(CNc2ncnc3cc(-c4cccnc4)sc23)cc1 [Example 25, N-(4-Hydroxybenzyl)-6-(pyridin-3-yl)thieno[3,2-d]-pyrimidin-4-amine] | > 10 | > 10 |
| Brc1cc2ncnc(NCc3ccc4c(c3)OCO4)c2s1 [Example 11, N-(3,4-Methylenedioxybenzyl)-6-bromothieno[3,2-d]pyrimidin-4-amine] | > 10 | > 10 |
| CN(Cc1ccc2c(c1)OCO2)c1ncnc2cc(-c3cccnc3)sc12 [Example 22, N-(3,4-Methylenedioxybenzyl)-N-methyl-6-(pyridin-3-yl)thieno[3,2-d]pyrimidin-4-amine] | 0.147 | 0.157 |
| Oc1ccc(CNc2ncnc3cc(Br)sc23)cc1 [Example 24, N-(4-Hydroxybenzyl)-6-bromothieno[3,2-d]-pyrimidin-4-amine] | > 10 | > 10 |
| COc1ccc(CNc2ncnc3cc(-c4cccnc4)sc23)cc1OC [Example 15, N-(3,4-Dimethoxybenzyl)-6-(pyridin-3-yl)thieno[3,2-d]pyrimidin-4-amine] | > 10 | > 10 |
| Cc1c(-c2ccccc2)sc2c(NCc3ccc4c(c3)OCO4)ncnc12 [Example 8, N-(3,4-Methylenedioxybenzyl)-7-methyl-6-phenylthieno[3,2-d]pyrimidin-4-amine] | > 10 | > 10 |
| Cc1nc(NCc2ccc3c(c2)OCO3)c2sc(Br)cc2n1 [Example 21, N-(3,4-Methylenedioxybenzyl)-6-bromo-2-methylthieno[3,2-d]pyrimidin-4-amine] | > 10 | > 10 |
| c1coc(-c2cc3ncnc(NCc4ccc5c(c4)OCO5)c3s2)c1 [Example 4, N-(3,4-Methylenedioxybenzyl)-6-(furan-2-yl)thieno[3,2-d]pyrimidin-4-amine] | 2.43 | 2.39 |
| c1cc(-c2cc3ncnc(NCc4ccc5c(c4)OCO5)c3s2)ccn1 [Example 2, N-(3,4-Methylenedioxybenzyl)-6-(pyridin-4-yl)thieno[3,2-d]pyrimidin-4-amine] | > 10 | > 10 |
| COc1ccc(OC)c(CNc2ncnc3cc(-c4cccnc4)sc23)c1 [Example 20, N-(2,5-Dimethoxybenzyl)-6-(pyridin-3-yl)thieno[3,2-d]pyrimidin-4-amine] | > 10 | > 10 |
| c1nc(NCc2ccc3c(c2)OCO3)c2sc(-c3ccoc3)cc2n1 [Example 12, N-(3,4-Methylenedioxybenzyl)-6-(furan-3-yl)thieno[3,2-d]pyrimidin-4-amine] | 2.8 | 2.79 |
| COc1cc(OC)c(CNc2ncnc3cc(-c4cccnc4)sc23)c(OC)c1 [Example 19, N-(2,4,6-Trimethoxybenzyl)-6-(pyridin-3-yl)thieno[3,2-d]pyrimidin-4-amine] | 5.13 | 2.89 |
| COc1cc(OC)c(CNc2ncnc3cc(I)sc23)c(OC)c1 [Example 17, N-(2,4,6-Trimethoxybenzyl)-6-iodothieno[3,2-d]pyrimidin-4-amine] | > 10 | > 10 |
| c1ncc(-c2cc3ncnc(NCc4ccc5c(c4)OCO5)c3s2)cn1 [Example 13, N-(3,4-Methylenedioxybenzyl)-6-(pyrimidin-5-yl)thieno[3,2-d]pyrimidin-4-amine] | 5.39 | 5.43 |
| c1ccc(-c2cc3ncnc(NCc4ccc5c(c4)OCO5)c3s2)nc1 [Example 6, N-(3,4-Methylenedioxybenzyl)-6-(pyridin-2-yl)thieno[3,2-d]pyrimidin-4-amine] | 4.32 | 5.1 |
| COc1ccc(CNc2ncnc3cc(I)sc23)cc1 [Example 9, N-(4-Methoxybenzyl)-6-iodothieno[3,2-d]pyrimidin-4-amine] | > 10 | > 10 |
| Cc1nc(NCc2ccc3c(c2)OCO3)c2sc(-c3cccnc3)cc2n1 [Example 23, N-(3,4-Methylenedioxybenzyl)-2-methyl-6-(pyridin-3-yl)thieno[3,2-d]pyrimidin-4-amine] | > 10 | > 10 |
| COc1ccc(OC)c(CNc2ncnc3cc(I)sc23)c1 [Example 18, N-(2,5-Dimethoxybenzyl)-6-iodothieno[3,2-d]pyrimidin-4-amine] | 2.3 | 2.57 |
| Cc1c(I)sc2c(NCc3ccc4c(c3)OCO4)ncnc12 [Example 7, N-(3,4-Methylenedioxybenzyl)-6-iodo-7-methylthieno[3,2-d]pyrimidin-4-amine] | > 10 | > 10 |
| c1nc(NCc2ccc3c(c2)OCO3)c2sccc2n1 [Example 1, N-(3,4-Methylenedioxybenzyl)-thieno[3,2-d]pyrimidin-4-amine] | > 10 | > 10 |
| COc1ccc(CNc2ncnc3cc(I)sc23)cc1OC [Example 14, N-(3,4-Dimethoxybenzyl)-6-iodothieno[3,2-d]pyrimidin-4-amine] | 4.3 | 5.08 |
| COc1ccc(CNc2ncnc3cc(I)sc23)c(OC)c1 [Example 16, N-(2,4-Dimethoxybenzyl)-6-iodothieno[3,2-d]pyrimidin-4-amine] | 1.29 | 2.87 |
